From US7507716B2, “Method for treating pain with prolactin antagonists” (Board of Regents, The University of Texas System, priority 2005, dated 2009)

System: PRL mRNA
Assay: Real-time RT-PCR of PRL mRNA in trigeminal ganglia
Type: in vivo, rat
Text: The S.A.M. and GeneSpring 5.1 analyses identified 18 genes whose expression increased and 3 genes whose expression decreased. […] The expression profile of genes selected using the microarray screen was confirmed by real-time RT-PCR. Validated primers were used for each gene and expression was normalized to the housekeeping gene 18S. Data are presented as mean±SEM (n=5/group, **=p<0.01 and ***=p<0.001 versus respective vehicle control; two-tailed unpaired T test). […] For this reason, PRL was selected for further study as a candidate therapeutic target for female-biased pain disorders.
Reactions were performed using primers specific for PRL gene and the internal control (18S). Data were normalized to the relative amount of OVX (vehicle) PRL mRNA/18S. Data are presented as mean±SEM (n=5/group, **=p<0.01 and ***=p<0.001 vs. PRL mRNA of the OVX/Vehicle group; one-way ANOVA with Bonferroni's post hoc test). […] Moreover, the relative PRL mRNA expression in the TG of intact female rats during proestrous was 78-fold greater (p<0.001). The TG samples collected from these groups were also subjected to Western blot analysis to determine the relative expression of PRL protein. […] The results obtained from these experiments were quantified as described in the METHODS section. […] The specificity of anti-PRL antibodies was evaluated by a use of the blocking peptide corresponding to the epitope of PRL. Pre-absorption of anti-PRL antibodies with the blocking peptide nearly eliminated the PRL-specific band (FIGS. 2B, 2C).
RNA isolation: Harvested TG tissue from OVX (treated with vehicle or estradiol) or intact proestrous female rats were immediately frozen in liquid nitrogen and ground in a pre-chilled mortar. The ground tissue was used to isolate total RNA by the guanidinium thiocyanate method as described previously (Chomczynski and Sacchi, 1987). […] Additional RNA sample aliquots were used as template for the quantitative real time RT-PCR experiments.
Quantitative Real Time RT-PCR (qRT-PCR): Total RNA (100 ng) was used as template in a one-step RT-PCR protocol. […]

C[C@]12CC[C@@H]3c4ccc(O)cc4CC[C@H]3[C@@H]1CC[C@@H]2O [estradiol, 17-β-estradiol]
PRL mRNA estradiol responsiveness in TG neurons (OVX rats undergoing estradiol replacement, summary statement): > 40 fold | increase in PRL mRNA expression in TG vs OVX control rats (OVX rats with estradiol replacement 80 μg/kg/day×10 days, normalized to 18S, FIG. 2A): approximately 50 fold | increase in PRL mRNA expression in response to estradiol (TG of OVX rats, 80 μg/kg/day for 10 days vs vehicle, normalized to 18S, FIG. 1): 48 fold
